Experimental data published in patent publication US12410211B2, “V1A receptor partial agonist and method of use” (PharmaIN Corporation, priority 2020, dated 2025).
Where two headings read alike, the source gives them in different places. Marks after values point to notes of the source that are not given here.

Experiments:
[1] = target: T1, V1a receptor (Homo sapiens, UniProt P37288); test: V1a Human Vasopressin GPCR Cell Based Agonist Calcium Flux Assay; details: for Emax: read-out: V1a Highest agonist effect (% of AVP)
T1 construct: host or cells: CHO cells
T1 sequence (P37288 whole entry): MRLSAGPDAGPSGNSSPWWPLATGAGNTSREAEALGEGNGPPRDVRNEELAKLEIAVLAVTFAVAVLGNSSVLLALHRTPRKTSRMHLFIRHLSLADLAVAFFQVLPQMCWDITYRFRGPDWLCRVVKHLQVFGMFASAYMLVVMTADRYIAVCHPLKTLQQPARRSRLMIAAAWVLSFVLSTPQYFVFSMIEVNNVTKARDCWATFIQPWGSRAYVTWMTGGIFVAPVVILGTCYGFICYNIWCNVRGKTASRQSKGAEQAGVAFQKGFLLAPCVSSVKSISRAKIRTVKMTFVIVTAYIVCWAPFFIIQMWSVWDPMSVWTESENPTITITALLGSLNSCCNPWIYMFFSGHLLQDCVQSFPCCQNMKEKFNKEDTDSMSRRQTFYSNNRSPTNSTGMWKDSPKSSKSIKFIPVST
Method: Peptides of Formula (I) include Mpa-Tyr-Phe-Hgn-Asn-Cys-Pro-Lys(X)a-Gly-NH2 [SEQ ID NO. 24]; where (X)a is a peptide with “a” residues and each residue X is independently selected from Gly, and a D- or L-amino acid version of Ala, Lys, Orn, Glu, and Asp, where “a” is 0-10. V1a Human Vasopressin GPCR Cell Based Agonist Calcium Flux Assay were conducted at Eurofins Cerep SA (France) on a fee for service basis. Human recombinant CHO cells expressing human V1 receptors were distributed in microplates. Intracellular calcium signal was detected by fluorimetry, and the signal was acquired before and after addition of a known agonist concentration. The following agonist concentrations were tested (nM); 0.0128, 0.064, 0.32, 1.6, 8, 40, 200, and 1,000. […] All assays were performed in duplicate. Changes in fluorescence intensity reflected changes in the concentration of free cytosolic calcium. […] The half-maximal effective concentration (EC50) was determined by a non-linear regression analysis of the concentration-response curves generated with mean replicate values using Hill equation curve fitting (Cerep, I'Evescault, France).
V1a Human Vasopressin GPCR Cell Based Agonist Calcium Flux Assay were conducted using human recombinant CHO cells expressing human V1 receptor. Briefly, human recombinant CHO cells expressing human V1 receptor were distributed in microplates at 4.5×10^4 cells/well. The fluorescent probe (Fluo4 Direct, Invitrogen) mixed with probenicid in HBSS buffer (Invitrogen) complemented with 20 mM HEPES (Invitrogen) (pH 7.4) is then added into each well and equilibrated with the cells for 60 min at 37° C. then 15 min at 22° C. Thereafter, the assay plates are positioned in a microplate reader (CellLux, PerkinElmer) which is used for the addition of the test compound, reference agonist or HBSS buffer (basal control), and the measurements of changes in fluorescence intensity which varies proportionally to the free cytosolic Ca^2+ ion concentration. The following agonist concentrations were tested (nM), 0.0128, 0.064, 0.32, 1.6, 8, 40, 200, and 1,000. […] All assays were performed in duplicate. Changes in fluorescence intensity reflected changes in the concentration of free cytosolic calcium. […] Referring to FIG. 3 and Table 4, the half-maximal effective concentration (EC50) was determined by non-linear regression analysis of the concentration-response curves generated with mean replicate values using Hill equation curve fitting (Cerep, I'Evescault, France).

[2] = Therapeutic index (NOAEL/NOEL): paleness, lethargy, ataxia observation in Sprague-Dawley rats (Example 7); format: in vivo; details: for Paleness (Duration, hrs; SD) / Highest dose with no-observed effect level or paleness (NOEL) / NOAEL/NOEL (therapeutic index) / NOAEL at 24 h / NOAEL: S.C.; for NOAEL at 24 h: male, Sprague-Dawley; for NOAEL at 24 h / NOAEL: read-out: Highest dose with no-observed adverse effect level without lethargy (NOAEL)
From the text: As used herein, the term “therapeutic index” (TI; also referred to as therapeutic ratio) is a quantitative measure of the relative safety of a drug. […] For the purpose of the present application, lethargy is a lack of energy and/or sleepiness which is visually observed in rats as a lack of mobility, such as a lack of mobility even in the presence of human activity. For the purpose of present specification, peripheral vasoconstriction is visually observed by a paleness of the extremities (e.g., skin of hands, feet, ears, and lips). In rats, peripheral vasoconstriction is determined by a side-by-side comparison of ear paleness in treated subjects (e.g., Sprague Dawley rats, a white rat with easily visualizable changes in redness/paleness) vs. untreated control subjects. The V1a agonist (or partial agonist) with a high therapeutic index will have a better safety profile than that with a low therapeutic index by providing a wider margin of safety for dosing during the treatment of the disease. This NOAEL/NOEL ratio, being a quantitative measure of the relative safety, is a comparison of the amount of a therapeutic agent that causes the therapeutic effect (useful effect, vasoconstriction for the purpose of the present specification) to the amount that causes toxicity. A V1a agonist that causes severe vasoconstriction will affect not only the peripheral vessels, with several layer of smooth muscles, but also other vessels present in other organs (e.g., heart, lungs, kidney, brain) and this will result in observed lethargy and eventually ataxia. A partial agonist is less likely to reach such an extreme level of vasoconstriction and is believed to have a higher therapeutic index.
In this study, 8 to 10 weeks male Sprague-Dawley rats (Charles River; Wilmington, MA) under isoflurane anesthesia (n=3 or 6) were intravenously (IV) or subcutaneously (SC) injected or administered with various test articles. Prior to administration of test articles, the injection area was clipped free of fur, to allow for clear visualization of the dose site, and animal weight was measured and recorded. Animals were housed two per cage. […] Lethargy is when the animal eyes cannot fully open and is associated deep breathing and limited of movement even in the presence of human.

[3] = at the Marked adverse effect dose
[4] = at the Mild adverse effect dose
[5] = Table 3, cells printed in μM, read-out: Estimated V1a EC50, n = 2

SMILES	EC50 ([1]; Table 3, CHO cells expressing human V1 receptor, read-out: Estimated V1a EC50 (nM), n = 2) [nM]	Emax ([1]; Table 3, n = 2) [%]	Paleness (Duration, hrs; SD) [2, 3]	Paleness (Duration, hrs; SD) [2, 4]	Paleness (Duration, hrs; SD) ([2]; at the NOAEL dose)	Paleness (Duration, hrs; SD) ([2]; at the NOEL dose)	Highest dose with no-observed effect level or paleness (NOEL) ([2]; rat) [mg/kg]	NOAEL/NOEL (therapeutic index) ([2]; rat)	NOAEL at 24 h ([2]; in vivo, sc, rat) [mg/kg]	Marked adverse effect (Lowest dose first showed Ataxia) ([2]; rat, in vivo, sc) [mg/kg]	Mild adverse effect (Lowest dose first showed Lethargy) ([2]; rat, in vivo, sc) [mg/kg]	EC50 ([1]; FIG. 2 / FIG. 3 legend, n=2, read-out: EC50 for V1a receptor) [nM]	bioactivity duration compared with terlipressin ([2]; remark in NOAEL/NOEL column) [x longer]	V1a Highest agonist effect (% of AVP); n = 2 ([1]; Table 3)	EC50 [1, 5] [nM]	NOAEL ([2]; in vivo, sc, rat) [mg/kg]	Ataxia (duration, hrs; SD) ([2]; rat, in vivo, sc)	Lethargy (duration, hrs; SD) ([2]; rat, in vivo, sc)
NCC(=O)NCC(=O)NCC(=O)NCC(=O)NCC(=O)NCC(=O)NCC(=O)NCCCC[C@H](NC(=O)[C@@H]1CCCN1C(=O)[C@@H]1CSSCCC(=O)N[C@@H](Cc2ccc(O)cc2)C(=O)N[C@@H](Cc2ccccc2)C(=O)N[C@@H](CCCC(N)=O)C(=O)N[C@@H](CC(N)=O)C(=O)N1)C(=O)NCC(N)=O [SEQ ID NO. 14, Mpa-Tyr-Phe-Hgn-Asn-Cys-Pro-Lys(X)a-Gly-NH2; (X)a = (Gly)7]	30.9	26.1	(>6.44)* hrs	(>6.39)* hrs	(5.86 ± 0.13) hrs	None Observed	0.0015	100	0.15	1.5	0.5	–	–	–	–	–	–	–
NCC(=O)NCC(=O)NCC(=O)NCCCC[C@H](NC(=O)[C@@H]1CCCN1C(=O)[C@@H]1CSSCCC(=O)N[C@@H](Cc2ccc(O)cc2)C(=O)N[C@@H](Cc2ccccc2)C(=O)N[C@@H](CCCC(N)=O)C(=O)N[C@@H](CC(N)=O)C(=O)N1)C(=O)NCC(N)=O [SEQ ID NO. 10, Mpa-Tyr-Phe-Hgn-Asn-Cys-Pro-Lys(X)a-Gly-NH2; (X)a = (Gly)3]	–	32.9	(6.4 ± 0.07) hrs	(6.27 ± 0.13) hrs	(5.65 ± 0.4) hrs	None observed	0.0015	100	0.15	1.5	0.5	53.5	–	–	–	–	–	–
NCCCC[C@H](NC(=O)[C@@H]1CCCN1C(=O)[C@@H]1CSSCCC(=O)N[C@@H](Cc2ccc(O)cc2)C(=O)N[C@@H](Cc2ccccc2)C(=O)N[C@@H](CCCC(N)=O)C(=O)N[C@@H](CC(N)=O)C(=O)N1)C(=O)NCC(N)=O [SEQ ID NO. 25, Mpa-Tyr-Phe-Hgn-Asn-Cys-Pro-Lys-Gly-NH2]	–	42.8	(4.9 ± 0.05) hrs	(5.66 ± 0.83) hrs	(3.78 ± 0.05) hrs	None observed	0.0015	10	0.015	0.15	0.05	–	3	–	–	–	–	–
CCCCCCCCCCCC(=O)NCCCC[C@H](NC(=O)[C@@H]1CCCN1C(=O)[C@@H]1CSSCCC(=O)N[C@@H](Cc2ccc(O)cc2)C(=O)N[C@@H](Cc2ccccc2)C(=O)N[C@@H](CCCC(N)=O)C(=O)N[C@@H](CC(N)=O)C(=O)N1)C(=O)NCC(N)=O [SEQ ID NO. 27, Mpa-Tyr-Phe-Hgn-Asn-Cys-Pro-Lys(X)a-Gly-NH2; (X)a = Lauric acid]	–	–	–	–	–	–	0.1	90 (dose too	–	>9	>9	–	–	inactive	> 10000	9	None Observed	None Observed
NCCCC[C@@H](NC(=O)[C@@H]1CCCN1C(=O)[C@@H]1CSSCCC(=O)N[C@@H](Cc2ccc(O)cc2)C(=O)N[C@@H](Cc2ccccc2)C(=O)N[C@@H](CCCC(N)=O)C(=O)N[C@@H](CC(N)=O)C(=O)N1)C(=O)NCC(N)=O [SEQ ID NO. 18, Mpa-Tyr-Phe-Hgn-Asn-Cys-Pro-dLys-Gly-NH2]	–	0.2	–	–	–	–	0.005	30	–	1.5	0.5	–	–	–	> 10000	0.15	–	–
